Assay results from PubChem BioAssay (NCI).
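These data come from cells grown in 96-well plates and exposed to compound for 48 hours at five concentrations. At the GI50, growth is halved. The concentration for full growth arrest is given as TGI.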

Key:
Assay in all cases: NCI anticancer screen, dose series, 48 h
MDA-MB-231 breast = system: MDA-MB-231 breast
T-47D breast = system: T-47D breast
HCT-116 colon = system: HCT-116 colon
MCF7 breast = system: MCF7 breast
HCC-2998 colon = system: HCC-2998 colon
SF-268 CNS = system: SF-268 CNS
SF-295 CNS = system: SF-295 CNS
TK-10 renal = system: TK-10 renal
EKVX NSCLC = system: EKVX NSCLC
SF-539 CNS = system: SF-539 CNS
SK-MEL-28 melanoma = system: SK-MEL-28 melanoma
SW-620 colon = system: SW-620 colon
HT29 colon = system: HT29 colon
HOP-62 NSCLC = system: HOP-62 NSCLC
OVCAR-5 ovarian = system: OVCAR-5 ovarian
HCT-15 colon = system: HCT-15 colon
CCRF-CEM leukemia = system: CCRF-CEM leukemia
OVCAR-3 ovarian = system: OVCAR-3 ovarian
NCI-H226 lung = system: NCI-H226 lung
SK-OV-3 ovarian = system: SK-OV-3 ovarian
HS 578T breast = system: HS 578T breast
BT-549 breast = system: BT-549 breast
HOP-92 NSCLC = system: HOP-92 NSCLC
RXF 393 renal = system: RXF 393 renal
IGROV1 ovarian = system: IGROV1 ovarian
UACC-62 melanoma = system: UACC-62 melanoma
K-562 leukemia = system: K-562 leukemia
OVCAR-4 ovarian = system: OVCAR-4 ovarian
U251 CNS = system: U251 CNS
DU-145 prostate = system: DU-145 prostate
SK-MEL-2 melanoma = system: SK-MEL-2 melanoma
MDA-MB-468 breast = system: MDA-MB-468 breast
LOX IMVI melanoma = system: LOX IMVI melanoma
NCI/ADR-RES ovarian = system: NCI/ADR-RES ovarian
MDA-MB-435 = system: MDA-MB-435
SN12C renal = system: SN12C renal
NCI-H460 lung = system: NCI-H460 lung
A549 NSCLC = system: A549 NSCLC
RPMI-8226 leukemia = system: RPMI-8226 leukemia
COLO 205 colon = system: COLO 205 colon
SNB-19 CNS = system: SNB-19 CNS
CAKI-1 renal = system: CAKI-1 renal
UO-31 renal = system: UO-31 renal
HL-60(TB) leukemia = system: HL-60(TB) leukemia
ACHN renal = system: ACHN renal
NCI-H522 lung = system: NCI-H522 lung
M14 melanoma = system: M14 melanoma
786-0 renal = system: 786-0 renal
OVCAR-8 ovarian = system: OVCAR-8 ovarian
SK-MEL-5 melanoma = system: SK-MEL-5 melanoma
UACC-257 melanoma = system: UACC-257 melanoma
A498 renal = system: A498 renal
MOLT-4 leukemia = system: MOLT-4 leukemia
NCI-H23 lung = system: NCI-H23 lung
MALME-3M melanoma = system: MALME-3M melanoma
SNB-75 CNS = system: SNB-75 CNS
KM12 colon = system: KM12 colon
PC-3 prostate = system: PC-3 prostate

CN(C)CCCNC(=O)c1cc(NC(=O)c2cc(NC(=O)c3ccc(/C=C/c4ccccc4)cc3)cn2C)cn1C
GI50 (MDA-MB-231 breast): 8.81 µM | TGI (MDA-MB-231 breast): > 31.3 µM | GI50 (T-47D breast): 6.01 µM | TGI (T-47D breast): > 31.3 µM | GI50 (HCT-116 colon): 5.36 µM | TGI (HCT-116 colon): 13.4 µM | GI50 (MCF7 breast): 1.71 µM | TGI (MCF7 breast): 6.85 µM | GI50 (HCC-2998 colon): 10.1 µM | TGI (HCC-2998 colon): > 31.3 µM | GI50 (SF-268 CNS): 10.6 µM | TGI (SF-268 CNS): > 31.3 µM | GI50 (SF-295 CNS): 8.56 µM | TGI (SF-295 CNS): > 31.3 µM | GI50 (TK-10 renal): 12.1 µM | TGI (TK-10 renal): > 31.3 µM | GI50 (EKVX NSCLC): 10.6 µM | TGI (EKVX NSCLC): > 31.3 µM | GI50 (SF-539 CNS): 5.41 µM | TGI (SF-539 CNS): 10.9 µM | GI50 (SK-MEL-28 melanoma): 15.2 µM | TGI (SK-MEL-28 melanoma): > 31.3 µM | GI50 (SW-620 colon): 6.62 µM | TGI (SW-620 colon): 14.9 µM | GI50 (HT29 colon): 5.89 µM | TGI (HT29 colon): 21.1 µM | GI50 (HOP-62 NSCLC): 7.16 µM | TGI (HOP-62 NSCLC): 19.8 µM | GI50 (OVCAR-5 ovarian): 20.3 µM | TGI (OVCAR-5 ovarian): > 31.3 µM | GI50 (HCT-15 colon): 7.26 µM | TGI (HCT-15 colon): 25.7 µM | GI50 (CCRF-CEM leukemia): 5.03 µM | TGI (CCRF-CEM leukemia): 21.5 µM | GI50 (OVCAR-3 ovarian): 6.75 µM | TGI (OVCAR-3 ovarian): 26.4 µM | GI50 (NCI-H226 lung): 9.93 µM | TGI (NCI-H226 lung): > 31.3 µM | GI50 (SK-OV-3 ovarian): 17.6 µM | TGI (SK-OV-3 ovarian): > 31.3 µM | GI50 (HS 578T breast): 8.39 µM | TGI (HS 578T breast): > 31.3 µM | GI50 (BT-549 breast): 4.28 µM | TGI (BT-549 breast): 16.5 µM | GI50 (HOP-92 NSCLC): 3.95 µM | TGI (HOP-92 NSCLC): 17.7 µM | GI50 (RXF 393 renal): 3.2 µM | TGI (RXF 393 renal): 19 µM | GI50 (IGROV1 ovarian): 22.5 µM | TGI (IGROV1 ovarian): > 31.3 µM | GI50 (UACC-62 melanoma): 7.46 µM | TGI (UACC-62 melanoma): > 31.3 µM | GI50 (K-562 leukemia): 5.83 µM | TGI (K-562 leukemia): 19 µM | GI50 (OVCAR-4 ovarian): 16.1 µM | TGI (OVCAR-4 ovarian): > 31.3 µM | GI50 (U251 CNS): 5.36 µM | TGI (U251 CNS): 10.7 µM | GI50 (DU-145 prostate): 11.5 µM | TGI (DU-145 prostate): > 31.3 µM | GI50 (SK-MEL-2 melanoma): 5.32 µM | TGI (SK-MEL-2 melanoma): 10.9 µM | GI50 (MDA-MB-468 breast): 5.72 µM | TGI (MDA-MB-468 breast): 14.5 µM | GI50 (LOX IMVI melanoma): 4.67 µM | TGI (LOX IMVI melanoma): 8.86 µM | GI50 (NCI/ADR-RES ovarian): 7.76 µM | TGI (NCI/ADR-RES ovarian): 24.3 µM | GI50 (MDA-MB-435): 8.48 µM | TGI (MDA-MB-435): > 31.3 µM | GI50 (SN12C renal): 7.41 µM | TGI (SN12C renal): > 31.3 µM | GI50 (NCI-H460 lung): 6.91 µM | TGI (NCI-H460 lung): 16.2 µM | GI50 (A549 NSCLC): 13.3 µM | TGI (A549 NSCLC): > 31.3 µM | GI50 (RPMI-8226 leukemia): 3.51 µM | TGI (RPMI-8226 leukemia): 16.5 µM | GI50 (COLO 205 colon): 9.44 µM | TGI (COLO 205 colon): 26.4 µM | GI50 (SNB-19 CNS): 16.7 µM | TGI (SNB-19 CNS): > 31.3 µM | GI50 (CAKI-1 renal): 10.9 µM | TGI (CAKI-1 renal): > 31.3 µM | GI50 (UO-31 renal): 9.91 µM | TGI (UO-31 renal): > 31.3 µM | GI50 (HL-60(TB) leukemia): 7.05 µM | TGI (HL-60(TB) leukemia): 20.7 µM | GI50 (ACHN renal): 11.5 µM | TGI (ACHN renal): > 31.3 µM | GI50 (NCI-H522 lung): 7.34 µM | TGI (NCI-H522 lung): 24.2 µM | GI50 (M14 melanoma): 5.05 µM | TGI (M14 melanoma): 10.1 µM | GI50 (786-0 renal): 9.14 µM | TGI (786-0 renal): > 31.3 µM | GI50 (OVCAR-8 ovarian): 6.5 µM | TGI (OVCAR-8 ovarian): 18.7 µM | GI50 (SK-MEL-5 melanoma): 8.85 µM | TGI (SK-MEL-5 melanoma): > 31.3 µM | GI50 (UACC-257 melanoma): 10.5 µM | TGI (UACC-257 melanoma): > 31.3 µM | GI50 (A498 renal): 25.2 µM | TGI (A498 renal): > 31.3 µM | GI50 (MOLT-4 leukemia): 7.27 µM | TGI (MOLT-4 leukemia): 25.9 µM | GI50 (NCI-H23 lung): 13.2 µM | TGI (NCI-H23 lung): > 31.3 µM | GI50 (MALME-3M melanoma): 7.41 µM | TGI (MALME-3M melanoma): > 31.3 µM | GI50 (SNB-75 CNS): 1.98 µM | TGI (SNB-75 CNS): 24.6 µM | GI50 (KM12 colon): 7.16 µM | TGI (KM12 colon): 18.5 µM | GI50 (PC-3 prostate): 10.1 µM | TGI (PC-3 prostate): > 31.3 µM
